# Calls of active or inactive are those of the source. No cut-off for these calls is given here.
# Experiments:
# [1] = tested on: A549; test: Cytotoxicity against human A549 cells at 25 uM after 48 hrs by WST8 assay; assay type: functional, cell-based
# [2] = tested on: MRC5; test: Cytotoxicity against human MRC5 cells at 25 uM after 48 hrs by WST8 assay; assay type: cell-based; conditions: mrc5, 48 h
# [3] = tested on: PANC-1; test: Cytotoxicity against human PANC1 cells at 25 uM after 48 hrs by WST8 assay; assay type: functional, cell-based
# [4] = tested on: PC-3; test: Cytotoxicity against human PC3 cells at 25 uM after 48 hrs by WST8 assay; assay type: functional, cell-based
# [5] = tested on: HL-60; test: Cytotoxicity against human HL60 cells at 25 uM after 48 hrs by WST8 assay; assay type: functional, cell-based
# [6] = target: DNA topoisomerase 2-alpha (Homo sapiens, UniProt P11388); test: Inhibition of human DNA topoisomerase 2-mediated relaxation of supercoiled DNA by gel electrophoresis
# [7] = target: T1, DNA topoisomerase 1 (Homo sapiens, UniProt P11387); test: Inhibition of human DNA topoisomerase 1-mediated relaxation of supercoiled DNA by gel electrophoresis
# T1 sequence (P11387 whole entry): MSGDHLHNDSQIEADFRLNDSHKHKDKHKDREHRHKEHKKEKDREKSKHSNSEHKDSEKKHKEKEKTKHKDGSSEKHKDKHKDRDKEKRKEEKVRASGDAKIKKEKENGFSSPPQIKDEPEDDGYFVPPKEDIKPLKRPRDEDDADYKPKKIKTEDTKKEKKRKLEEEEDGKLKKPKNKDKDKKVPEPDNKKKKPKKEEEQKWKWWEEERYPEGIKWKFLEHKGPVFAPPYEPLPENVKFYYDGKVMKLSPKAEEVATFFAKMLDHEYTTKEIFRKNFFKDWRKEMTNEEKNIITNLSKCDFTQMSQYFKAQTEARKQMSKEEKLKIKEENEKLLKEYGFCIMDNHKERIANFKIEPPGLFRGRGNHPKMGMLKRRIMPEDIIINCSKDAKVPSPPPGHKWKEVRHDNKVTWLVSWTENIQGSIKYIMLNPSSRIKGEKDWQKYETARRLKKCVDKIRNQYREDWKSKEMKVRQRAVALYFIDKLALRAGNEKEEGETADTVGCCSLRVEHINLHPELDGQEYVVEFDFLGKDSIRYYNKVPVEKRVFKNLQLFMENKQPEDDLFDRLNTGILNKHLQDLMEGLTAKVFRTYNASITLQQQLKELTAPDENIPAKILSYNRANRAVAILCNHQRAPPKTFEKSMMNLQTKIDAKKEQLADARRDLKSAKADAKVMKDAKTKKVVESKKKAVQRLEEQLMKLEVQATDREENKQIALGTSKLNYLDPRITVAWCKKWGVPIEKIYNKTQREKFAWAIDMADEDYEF
# DNA topoisomerase 2-alpha, sequence (P11388 whole entry): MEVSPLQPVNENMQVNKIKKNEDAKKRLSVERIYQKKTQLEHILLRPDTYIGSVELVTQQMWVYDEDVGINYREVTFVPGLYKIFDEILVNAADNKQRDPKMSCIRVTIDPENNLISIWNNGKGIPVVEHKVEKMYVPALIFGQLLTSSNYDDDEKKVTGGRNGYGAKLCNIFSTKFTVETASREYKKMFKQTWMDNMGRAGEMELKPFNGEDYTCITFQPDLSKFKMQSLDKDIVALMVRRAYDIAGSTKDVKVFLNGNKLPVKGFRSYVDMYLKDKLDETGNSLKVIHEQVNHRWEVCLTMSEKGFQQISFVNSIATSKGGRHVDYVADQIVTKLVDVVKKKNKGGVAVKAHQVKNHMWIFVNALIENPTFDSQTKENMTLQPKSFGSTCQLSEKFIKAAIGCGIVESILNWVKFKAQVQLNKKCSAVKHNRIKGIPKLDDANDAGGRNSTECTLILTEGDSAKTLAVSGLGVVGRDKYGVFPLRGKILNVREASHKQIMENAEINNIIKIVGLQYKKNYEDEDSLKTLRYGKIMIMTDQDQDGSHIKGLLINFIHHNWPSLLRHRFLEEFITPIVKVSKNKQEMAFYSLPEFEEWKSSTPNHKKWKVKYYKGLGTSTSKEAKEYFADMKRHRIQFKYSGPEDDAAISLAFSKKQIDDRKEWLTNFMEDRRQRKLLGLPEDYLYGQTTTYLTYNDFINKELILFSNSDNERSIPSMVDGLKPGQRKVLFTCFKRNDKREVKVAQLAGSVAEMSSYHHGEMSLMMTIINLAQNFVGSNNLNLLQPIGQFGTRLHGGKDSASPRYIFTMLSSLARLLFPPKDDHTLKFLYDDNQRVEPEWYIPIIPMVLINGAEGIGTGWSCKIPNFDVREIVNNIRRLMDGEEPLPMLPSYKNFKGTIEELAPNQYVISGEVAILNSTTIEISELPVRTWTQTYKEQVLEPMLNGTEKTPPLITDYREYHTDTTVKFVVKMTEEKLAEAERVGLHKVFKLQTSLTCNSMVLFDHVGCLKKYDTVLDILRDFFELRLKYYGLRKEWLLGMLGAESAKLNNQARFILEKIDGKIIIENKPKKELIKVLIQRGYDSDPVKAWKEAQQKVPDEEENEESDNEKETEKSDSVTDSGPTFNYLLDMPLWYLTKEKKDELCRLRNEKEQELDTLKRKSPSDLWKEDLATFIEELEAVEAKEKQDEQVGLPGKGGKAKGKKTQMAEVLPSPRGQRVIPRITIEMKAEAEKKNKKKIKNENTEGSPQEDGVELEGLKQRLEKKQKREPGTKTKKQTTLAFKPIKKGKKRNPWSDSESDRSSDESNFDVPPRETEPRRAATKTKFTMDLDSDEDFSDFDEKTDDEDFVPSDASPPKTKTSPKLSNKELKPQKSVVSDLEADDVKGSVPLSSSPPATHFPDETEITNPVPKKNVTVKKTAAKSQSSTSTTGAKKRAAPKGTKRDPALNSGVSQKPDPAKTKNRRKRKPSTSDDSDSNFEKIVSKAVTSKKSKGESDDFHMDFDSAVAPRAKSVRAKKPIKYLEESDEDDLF
SMILES,growth inhibition (GI) [1],growth inhibition (GI) [2],growth inhibition (GI) [3],growth inhibition (GI) [4],growth inhibition (GI) [5],IC50 [6] [µM],IC50 [7] [µM]
C[C@@H]1O[C@H](O[C@H]2CC[C@]3(C)[C@H]4CC=C5[C@@H]6CC(C)(C)CC[C@]6(C(=O)O[C@@H]6O[C@H](CO)[C@@H](O)[C@H](O)[C@H]6O)CC[C@@]5(C(=O)O)[C@]4(C)CC[C@H]3C2(C)C)[C@@H](O)[C@H](O)[C@H]1O,inactive,Not Active,inactive,inactive,inactive,,
C[C@@H]1O[C@H](O[C@@H]2[C@@H](O)[C@H](O[C@H]3CC[C@]4(C)[C@H]5CC=C6[C@@H]7CC(C)(C)CC[C@]7(C(=O)O[C@@H]7O[C@H](CO)[C@@H](O)[C@H](O)[C@H]7O)CC[C@@]6(C)[C@]5(C)CC[C@H]4C3(C)C)O[C@H](C(=O)O)[C@H]2O)[C@H](O)[C@H](O)[C@H]1O,inactive,Not Active,inactive,inactive,inactive,,
CC1(C)C[C@H]2C3=CC[C@@H]4[C@@]5(C)CC[C@H](O[C@@H]6O[C@H](C(=O)O)[C@@H](O)[C@H](O[C@@H]7O[C@@H](CO)[C@H](O)[C@H]7O)[C@H]6O[C@@H]6O[C@H](CO)[C@H](O)[C@H](O)[C@H]6O)C(C)(C)[C@@H]5CC[C@@]4(C)[C@]3(C)[C@@H](O)[C@@H](O)[C@@]2(CO)[C@@H](O)[C@@H]1O [AESCULIOSIDE IA],inactive,Not Active,inactive,inactive,inactive,,
CC1(C)C[C@H]2C3=CC[C@@H]4[C@@]5(C)CC[C@H](O[C@@H]6O[C@H](C(=O)O)[C@@H](O)[C@H](O[C@@H]7O[C@@H](CO)[C@H](O)[C@H]7O)[C@H]6O[C@@H]6O[C@H](CO)[C@@H](O)[C@H](O)[C@H]6O)[C@](C)(CO)[C@@H]5CC[C@@]4(C)[C@]3(C)[C@@H](O)[C@@H](O)[C@@]2(CO)[C@@H](O)[C@@H]1O [AESCULIOSIDE IB],inactive,Not Active,inactive,inactive,inactive,,
CC1(C)C[C@H]2C3=CC[C@@H]4[C@@]5(C)CC[C@H](O[C@@H]6O[C@H](C(=O)O)[C@@H](O)[C@H](O[C@@H]7O[C@@H](CO)[C@H](O)[C@H]7O)[C@H]6O[C@@H]6O[C@H](CO)[C@H](O)[C@H](O)[C@H]6O)C(C)(C)[C@@H]5CC[C@@]4(C)[C@]3(C)C[C@@H](O)[C@@]2(CO)[C@@H](O)[C@@H]1O [AESCULIOSIDE IC],inactive,Not Active,inactive,inactive,inactive,,
CC1(C)C[C@H]2C3=CC[C@@H]4[C@@]5(C)CC[C@H](O[C@@H]6O[C@H](C(=O)O)[C@@H](O)[C@H](O[C@@H]7O[C@@H](CO)[C@H](O)[C@H]7O)[C@H]6O[C@@H]6O[C@H](CO)[C@@H](O)[C@H](O)[C@H]6O)[C@](C)(CO)[C@@H]5CC[C@@]4(C)[C@]3(C)C[C@@H](O)[C@@]2(CO)[C@@H](O)[C@@H]1O [AESCULIOSIDE ID],inactive,Not Active,inactive,inactive,inactive,,
CC1(C)C[C@H]2C3=CC[C@@H]4[C@@]5(C)CC[C@H](O[C@@H]6O[C@H](C(=O)O)[C@@H](O)[C@H](O[C@@H]7O[C@@H](CO)[C@H](O)[C@H]7O)[C@H]6O)[C@](C)(CO)[C@@H]5CC[C@@]4(C)[C@]3(C)C[C@@H](O)[C@@]2(CO)[C@@H](O)[C@@H]1O [AESCULIOSIDE IE],inactive,Not Active,inactive,inactive,inactive,,
CC(C)=CCC[C@](C)(O[C@@H]1O[C@H](CO[C@@H]2O[C@H](CO)[C@@H](O)[C@H](O)[C@H]2O)[C@@H](O)[C@H](O)[C@H]1O)[C@H]1CC[C@]2(C)[C@@H]1[C@H](O)C[C@@H]1[C@@]3(C)CC[C@H](O[C@@H]4O[C@H](CO)[C@@H](O)[C@H](O)[C@H]4O[C@@H]4O[C@H](CO)[C@@H](O)[C@H](O)[C@H]4O)C(C)(C)[C@@H]3CC[C@]12C [GINSENOSIDE RB1],inactive,,inactive,inactive,inactive,> 250,> 250
CC(C)=CCC[C@](C)(O[C@@H]1O[C@H](CO[C@@H]2OC[C@@H](O)[C@H](O)[C@H]2O)[C@@H](O)[C@H](O)[C@H]1O)[C@H]1CC[C@]2(C)[C@@H]1[C@H](O)C[C@@H]1[C@@]3(C)CC[C@H](O[C@@H]4O[C@H](CO)[C@@H](O)[C@H](O)[C@H]4O[C@@H]4O[C@H](CO)[C@@H](O)[C@H](O)[C@H]4O)C(C)(C)[C@@H]3CC[C@]12C [GINSENOSIDE RB3],inactive,,inactive,inactive,inactive,> 250,> 250
CC(C)=CCC[C@](C)(O[C@@H]1O[C@H](CO)[C@@H](O)[C@H](O)[C@H]1O)[C@H]1CC[C@]2(C)[C@@H]1[C@H](O)C[C@@H]1[C@@]3(C)CC[C@H](O[C@@H]4O[C@H](CO)[C@@H](O)[C@H](O)[C@H]4O[C@@H]4O[C@H](CO)[C@@H](O)[C@H](O)[C@H]4O)C(C)(C)[C@@H]3CC[C@]12C [GINSENOSIDE RD],inactive,,inactive,inactive,inactive,> 250,> 250
CC(C)=CCC[C@](C)(O[C@@H]1O[C@H](CO)[C@@H](O)[C@H](O)[C@H]1O)[C@H]1CC[C@]2(C)[C@@H]1[C@H](O)C[C@@H]1[C@@]3(C)CC[C@H](O)C(C)(C)[C@@H]3[C@@H](O[C@@H]3O[C@H](CO)[C@@H](O)[C@H](O)[C@H]3O[C@@H]3O[C@@H](C)[C@H](O)[C@@H](O)[C@H]3O)C[C@]12C [GINSENOSIDE RE],inactive,,inactive,inactive,inactive,> 250,> 250
CC(C)=CCC[C@](C)(O[C@@H]1O[C@H](CO[C@@H]2O[C@H](CO)[C@@H](O)[C@H](O)[C@H]2O)[C@@H](O)[C@H](O)[C@H]1O)[C@H]1CC[C@]2(C)[C@@H]1[C@H](O)C[C@@H]1[C@@]3(C)CC[C@H](O[C@@H]4O[C@H](CO)[C@@H](O)[C@H](O)[C@H]4O)C(C)(C)[C@@H]3CC[C@]12C [GYPENOSIDE XVII],inactive,,inactive,inactive,inactive,> 250,> 250

# From ChEMBL document CHEMBL1157938, “Cytotoxicity and inhibition of DNA topoisomerase I of polyhydroxylated triterpenoids and triterpenoid glycosides” (Bioorg Med Chem Lett, 2010)
